Measurements from patent US12275712B2, “Triterpene derivatives as HIV inhibitors” (HETERO LABS LIMITED, priority 2019, dated 2025).
Where two headings read alike, the source gives them in different places.

Assays:
pNL4-3 V7A = assay: Antiviral activity against pNL4-3 V7A strain in MT4 cells (p24 estimation); format: cell-based, HIV-1; settings: Human immunodeficiency virus 1, MT4, 96 h, read-out: pNL4-3 V7A IC50
Method: (§1) MT4 cells were Transfected with HIV-1 Plasmid (pNL4-3-WT & V7A) (Cells were incubating with required number of TCID50 of HIV-1 for 1.5 h at 37° C.). After infection, the infected cells were plated at the concentration of 3×10^4 cells per well in 96 well plate. Test compound was added to the test plate in defined format with the final concentration of DMSO is not more than 1%. Incubation was carried out in CO2 incubator for 4 days for viral infection. At the end of incubation period an aliquot from each well was taken for p24 estimation. p24 estimation was carried out using Advance biosciences kit as per the procedure detailed by supplier.

HIV-1 strain 92HT599 = assay: Antiviral activity against HIV-1 strain 92HT599 in MT2 cells (p24 estimation); format: cell-based
Method: MT2 cells were infected with HIV-1 strain 92HT599 (10 TCID 50/30000 cells). The infected cells were plated at the concentration of ˜30,000 cells per well in 96 well plate. Test compound was added to the micro plate in defined format with the final concentration of DMSO (vehicle) is not more than 1%. Incubation was carried out in CO2 incubator for ˜96 hours for viral infection. At the end of incubation period an aliquot from each well was taken for p24 estimation. The quantitation of p24 is an index for antiviral activity of the compound. Percent inhibition was calculated with reference to control values (vehicle controls). p24 estimation was carried out using Advance biosciences kit as per the procedure detailed by supplier.
The IC50 (nM) values are set forth in below Table-1.

pNL4-3 WT = assay: Antiviral activity against pNL4-3 WT strain in MT4 cells (p24 estimation); format: cell-based, HIV-1; settings: Human immunodeficiency virus 1, MT4, 96 h, read-out: pNL4-3 WT IC50
Method: as §1

[1] = Human immunodeficiency virus 1, HIV-1 strain 92HT599, MT2 cells, ~96 hours, p24, read-out: IC50

SMILES: CC1([C@@H]2CC[C@]3(NCC(C)(C)N4CCS(=O)(=O)CC4)CC[C@]4(C)[C@H](CC[C@@H]5[C@@]6(C)CC[C@H](OC(=O)[C@H]7C[C@@H](C(=O)O)C7(C)C)C(C)(C)[C@@H]6CC[C@]54C)[C@@H]23)CC1 [Example 1, (1R,3S)-3-((((1R,3aS,5aR,5bR,7aR,9S,11aR,11bR,13aR,13bR)-3a-((2-(1,1-dioxidothiomorpholino)-2-methylpropyl)amino)-5a,5b,8,8,11a-pentamethyl-1-(1-methylcyclopropyl)icosahydro-1H-cyclopentachrysen-9-yl)oxy)carbonyl)-2,2-dimethyl cyclobutane-1-carboxylic acid]
- IC50 (pNL4-3 V7A): > 100 nM
- IC50 (HIV-1 strain 92HT599; [1]): > 20 nM
- IC50 (pNL4-3 WT): > 50 nM

SMILES: C[C@@H](CN[C@]12CC[C@@H](C3(C)CC3)[C@@H]1[C@H]1CC[C@@H]3[C@@]4(C)CC[C@H](OC(=O)[C@H]5C[C@@H](C(=O)O)C5(C)C)C(C)(C)[C@@H]4CC[C@@]3(C)[C@]1(C)CC2)N1CCS(=O)(=O)CC1 [Example 2, (1R,3S)-3-((((1R,3aS,5aR,5bR,7aR,9S,11aR,11bR,13aR,13bR)-3a-(((S)-2-(1,1-dioxidothiomorpholino)propyl)amino)-5a,5b,8,8,11a-pentamethyl-1-(1-methylcyclopropyl)icosahydro-1H-cyclopentachrysen-9-yl)oxy)carbonyl)-2,2-dimethyl cyclobutane-1-carboxylic acid]
- IC50 (pNL4-3 V7A): 1 to 50 nM
- IC50 (HIV-1 strain 92HT599; [1]): < 10 nM
- IC50 (pNL4-3 WT): < 10 nM

SMILES: CC(C)[C@H](CN[C@]12CC[C@@H](C3(C)CC3)[C@@H]1[C@H]1CC[C@@H]3[C@@]4(C)CC[C@H](OC(=O)[C@H]5C[C@@H](C(=O)O)C5(C)C)C(C)(C)[C@@H]4CC[C@@]3(C)[C@]1(C)CC2)N1CCS(=O)(=O)CC1 [Example 3, (1R,3S)-3-((((1R,3aS,5aR,5bR,7aR,9S,11aR,11bR,13aR,13bR)-3a-(((R)-2-(1,1-dioxidothiomorpholino)-3-methylbutyl)amino)-5a,5b,8,8,11a-pentamethyl-1-(1-methylcyclopropyl)icosahydro-1H-cyclopenta[a]chrysen-9-yl)oxy)carbonyl)-2,2-dimethyl cyclobutane-1-carboxylic acid]
- IC50 (pNL4-3 V7A): > 100 nM
- IC50 (HIV-1 strain 92HT599; [1]): > 20 nM
- IC50 (pNL4-3 WT): > 50 nM

SMILES: CC1([C@@H]2CC[C@]3(NC[C@H](CO[Si](C)(C)C(C)(C)C)N4CCS(=O)(=O)CC4)CC[C@]4(C)[C@H](CC[C@@H]5[C@@]6(C)CC[C@H](OC(=O)[C@H]7C[C@@H](C(=O)O)C7(C)C)C(C)(C)[C@@H]6CC[C@]54C)[C@@H]23)CC1 [Example 4, (1R,3S)-3-((((1R,3aS,5aR,5bR,7aR,9S,11aR,11bR,13aR,13bR)-3a-(((R)-3-((tert-butyldimethylsilyl)oxy)-2-(1,1-dioxidothiomorpholino)propyl)amino)-5a,5b, 8,8,11a-pentamethyl-1-(1-methylcyclopropyl)icosahydro-1H-cyclopenta[a]chrysen-9-yl)oxy)carbonyl)-2,2-dimethylcyclobutane-1-carboxylic acid]
- IC50 (pNL4-3 V7A): > 100 nM
- IC50 (HIV-1 strain 92HT599; Human immunodeficiency virus 1, MT2, 96 h): 10 to 20 nM
- IC50 (pNL4-3 WT): > 50 nM

SMILES: CC1([C@@H]2CC[C@]3(NC[C@H](CO)N4CCS(=O)(=O)CC4)CC[C@]4(C)[C@H](CC[C@@H]5[C@@]6(C)CC[C@H](OC(=O)[C@H]7C[C@@H](C(=O)O)C7(C)C)C(C)(C)[C@@H]6CC[C@]54C)[C@@H]23)CC1 [Example 5, (1R,3S)-3-((((1R,3aS,5aR,5bR,7aR,9S,11aR,11bR,13aR,13bR)-3a-(((R)-2-(1,1-dioxidothiomorpholino)-3-hydroxypropyl)amino)-5a,5b,8,8,11a-pentamethyl-1-(1-methylcyclopropyl)icosahydro-1H-cyclopenta[a]chrysen-9-yl)oxy)carbonyl)-2,2-dimethylcyclobutane-1-carboxylic acid]
- IC50 (pNL4-3 V7A): 1 to 50 nM
- IC50 (HIV-1 strain 92HT599; [1]): < 10 nM
- IC50 (pNL4-3 WT): < 10 nM

SMILES: CC(C)[C@@H](CN[C@]12CC[C@@H](C3(C)CC3)[C@@H]1[C@H]1CC[C@@H]3[C@@]4(C)CC[C@H](OC(=O)[C@H]5C[C@@H](C(=O)O)C5(C)C)C(C)(C)[C@@H]4CC[C@@]3(C)[C@]1(C)CC2)N1CCS(=O)(=O)CC1 [Example 6, (1R,3S)-3-((((1R,3aS,5aR,5bR,7aR,9S,11aR,11bR,13aR,13bR)-3a-(((S)-2-(1,1-dioxidothiomorpholino)-3-methylbutyl)amino)-5a,5b,8,8,11a-pentamethyl-1-(1-methylcyclopropyl)icosahydro-1H-cyclopentachrysen-9-yl)oxy)carbonyl)-2,2-dimethylcyclobutane-1-carboxylic acid]
- IC50 (pNL4-3 V7A): 1 to 50 nM
- IC50 (HIV-1 strain 92HT599; [1]): < 10 nM
- IC50 (pNL4-3 WT): 10 to 50 nM

SMILES: C[C@@H](O)[C@@H](CN[C@]12CC[C@@H](C3(C)CC3)[C@@H]1[C@H]1CC[C@@H]3[C@@]4(C)CC[C@H](OC(=O)[C@H]5C[C@@H](C(=O)O)C5(C)C)C(C)(C)[C@@H]4CC[C@@]3(C)[C@]1(C)CC2)N1CCS(=O)(=O)CC1 [Example 7, (1R,3S)-3-((((1R,3aS,5aR,5bR,7aR,9S,11aR,11bR,13aR,13bR)-3a-(((2R,3R)-2-(1,1-dioxidothiomorpholino)-3-hydroxybutyl)amino)-5a,5b,8,8,11a-pentamethyl-1-(1-methylcyclopropyl)icosahydro-1H-cyclopentachrysen-9-yl)oxy)carbonyl)-2,2-dimethylcyclobutane-1-carboxylic acid]
- IC50 (pNL4-3 V7A): 1 to 50 nM
- IC50 (HIV-1 strain 92HT599; [1]): < 10 nM
- IC50 (pNL4-3 WT): < 10 nM

SMILES: CC1([C@@H]2CC[C@]3(NC[C@@H](CO)N4CCS(=O)(=O)CC4)CC[C@]4(C)[C@H](CC[C@@H]5[C@@]6(C)CC[C@H](OC(=O)[C@H]7C[C@@H](C(=O)O)C7(C)C)C(C)(C)[C@@H]6CC[C@]54C)[C@@H]23)CC1 [Example 8, (1R,3S)-3-((((1R,3aS,5aR,5bR,7aR,9S,11aR,11bR,13aR,13bR)-3a-(((S)-2-(1,1-dioxidothiomorpholino)-3-hydroxypropyl)amino)-5a,5b,8,8,11a-pentamethyl-1-(1-methylcyclopropyl)icosahydro-1H-cyclopenta[a]chrysen-9-yl)oxy)carbonyl)-2,2-dimethylcyclobutane-1-carboxylic acid]
- IC50 (pNL4-3 V7A): 1 to 50 nM
- IC50 (HIV-1 strain 92HT599; [1]): < 10 nM
- IC50 (pNL4-3 WT): < 10 nM

SMILES: CC1([C@@H]2CC[C@]3(NC[C@@H](CF)N4CCS(=O)(=O)CC4)CC[C@]4(C)[C@H](CC[C@@H]5[C@@]6(C)CC[C@H](OC(=O)[C@H]7C[C@@H](C(=O)O)C7(C)C)C(C)(C)[C@@H]6CC[C@]54C)[C@@H]23)CC1 [Example 9, (1R,3S)-3-((((1R,3aS,5aR,5bR,7aR,9S,11aR,11bR,13aR,13bR)-3a-(((S)-2-(1,1-dioxidothiomorpholino)-3-fluoropropyl)amino)-5a,5b,8,8,11a-pentamethyl-1-(1-methylcyclopropyl)icosahydro-1H-cyclopentachrysen-9-yl)oxy)carbonyl)-2,2-dimethyl cyclobutane-1-carboxylic acid]
- IC50 (pNL4-3 V7A): 50 to 100 nM
- IC50 (HIV-1 strain 92HT599; [1]): < 10 nM
- IC50 (pNL4-3 WT): 10 to 50 nM

SMILES: CC1([C@@H]2CC[C@]3(NC[C@H](CF)N4CCS(=O)(=O)CC4)CC[C@]4(C)[C@H](CC[C@@H]5[C@@]6(C)CC[C@H](OC(=O)[C@H]7C[C@@H](C(=O)O)C7(C)C)C(C)(C)[C@@H]6CC[C@]54C)[C@@H]23)CC1 [Example 10, (1R,3S)-3-((((1R,3aS,5aR,5bR,7aR,9S,11aR,11bR,13aR,13bR)-3a-(((R)-2-(1,1-dioxidothiomorpholino)-3-fluoropropyl)amino)-5a,5b,8,8,11a-pentamethyl-1-(1-methylcyclopropyl)icosahydro-1H-cyclopenta[a]chrysen-9-yl)oxy)carbonyl)-2,2-dimethyl cyclobutane-1-carboxylic acid]
- IC50 (pNL4-3 V7A): 1 to 50 nM
- IC50 (HIV-1 strain 92HT599; [1]): < 10 nM
- IC50 (pNL4-3 WT): < 10 nM

SMILES: CC(C)S(=O)(=O)N1CCN([C@@H](C)CN[C@]23CC[C@@H](C4(C)CC4)[C@@H]2[C@H]2CC[C@@H]4[C@@]5(C)CC[C@H](OC(=O)[C@H]6C[C@@H](C(=O)O)C6(C)C)C(C)(C)[C@@H]5CC[C@@]4(C)[C@]2(C)CC3)CC1 [Example 11, (1R,3S)-3-((((1R,3aS,5aR,5bR,7aR,9S,11aR,11bR,13aR,13bR)-3a-(((S)-2-(4-(isopropylsulfonyl)piperazin-1-yl)propyl)amino)-5a,5b,8,8,11a-pentamethyl-1-(1-methylcyclopropyl)icosahydro-1H-cyclopenta[a]chrysen-9-yl)oxy)carbonyl)-2,2-dimethyl cyclobutane-1-carboxylic acid]
- IC50 (pNL4-3 V7A): 1 to 50 nM
- IC50 (HIV-1 strain 92HT599; [1]): < 10 nM
- IC50 (pNL4-3 WT): < 10 nM
